One block for each compound: values may come before it.
Columns and labels:
Klebsiella aerogenes [1] = assay: In vitro minimal inhibitory concentration (MIC) of compound in combination with Ceftazidime (CAZ) showed synergic activity against Enterobacter aerogenes S-97; type: functional
Enterobacter cloacae [2] = assay: In vitro minimal inhibitory concentration (MIC) of compound in combination with Ceftazidime (CAZ) showed synergic activity against Enterobacter cloacae S-65; type: functional
Enterobacter cloacae [3] = assay: In vitro minimal inhibitory concentration (MIC) of compound in combination with Ceftazidime (CAZ) showed synergic activity against Enterobacter cloacae S-11; type: functional
Morganella morganii [4] = assay: In vitro minimal inhibitory concentration (MIC) of compound in combination with Ceftazidime (CAZ) showed synergic activity against Morganella morganii 36014; type: functional
Morganella morganii [5] = assay: In vitro minimal inhibitory concentration (MIC) of compound in combination with Ceftazidime (CAZ) showed synergic activity against Morganella morganii 36030; type: functional
Pseudomonas aeruginosa [6] = assay: microbe, parasite or virus in culture
Description: In vitro minimal inhibitory concentration (MIC) of compound against Pseudomonas aeruginosa CT-122 in combination with Ceftazidime (CAZ)

Pseudomonas aeruginosa [7] = assay: microbe, parasite or virus in culture; remark: listed apart in the source
Citrobacter freundii [8] = assay: In vitro minimal inhibitory concentration (MIC) of compound in combination with Ceftazidime (CAZ) showed synergic activity against Citrobacter freundii 44032; type: functional
Citrobacter freundii [9] = assay: In vitro minimal inhibitory concentration (MIC) of compound in combination with Ceftazidime (CAZ) showed synergic activity against Citrobacter freundii CT 76; type: functional
Klebsiella aerogenes [10] = assay: In vitro minimal inhibitory concentration (MIC) of compound in combination with Ceftazidime (CAZ) showed synergic activity against Enterobacter aerogenes 41003; type: functional
Klebsiella aerogenes [11] = assay: In vitro minimal inhibitory concentration (MIC) of compound in combination with Ceftazidime (CAZ) showed synergic activity against Enterobacter aerogenes 41004; type: functional
Klebsiella aerogenes [12] = assay: In vitro minimal inhibitory concentration (MIC) of compound in combination with Ceftazidime (CAZ) showed synergic activity against Enterobacter aerogenes 41006; type: functional
Enterobacter cloacae [13] = assay: In vitro minimal inhibitory concentration (MIC) of compound in combination with Ceftazidime (CAZ) showed synergic activity against Enterobacter cloacae 40011; type: functional
Enterobacter cloacae [14] = assay: In vitro minimal inhibitory concentration (MIC) of compound in combination with Ceftazidime (CAZ) showed synergic activity against Enterobacter cloacae E40002; type: functional
Enterobacter cloacae [15] = assay: In vitro minimal inhibitory concentration (MIC) of compound in combination with Ceftazidime (CAZ) showed synergic activity against Enterobacter cloacae P99; type: functional
Escherichia coli [16] = assay: In vitro minimal inhibitory concentration (MIC) of compound in combination with Ceftazidime (CAZ) showed synergic activity against Escherichia coli TEM 3; type: functional
Escherichia coli [17] = assay: In vitro minimal inhibitory concentration (MIC) of compound in combination with Ceftazidime (CAZ) showed synergic activity against Escherichia coli TEM 7; type: functional
Klebsiella pneumoniae = assay: In vitro minimal inhibitory concentration (MIC) of compound in combination with Ceftazidime (CAZ) showed synergic activity against Klebsiella pneumoniae CTX 1; type: functional
Pseudomonas aeruginosa [18] = assay: In vitro minimal inhibitory concentration (MIC) of compound in combination with Ceftazidime (CAZ) showed synergic activity against Pseudomonas aeruginosa 46220 (DR-2); type: functional
Proteus vulgaris = assay: In vitro minimal inhibitory concentration (MIC) of compound in combination with Ceftazidime (CAZ) showed synergic activity against Proteus vulgaris CT 106; type: functional
Pseudomonas aeruginosa [19] = assay: microbe, parasite or virus in culture; remark: listed apart in the source
Pseudomonas aeruginosa [20] = assay: microbe, parasite or virus in culture; remark: listed apart in the source
[21] = Morganella morganii, read-out: MIC

Compound: CC(C)(O/N=C(\C(=O)N[C@@H]1C(=O)N2C(C(=O)[O-])=C(C[n+]3ccccc3)CS[C@H]12)c1csc(N)n1)C(=O)O.CC1(C)[C@H](C(=O)[O-])N2C(=O)[C@@H]([C@@H](O)c3ccccc3)[C@H]2S1(=O)=O.[Na+]
MIC (Klebsiella aerogenes [1]): 2 µg/mL
MIC (Enterobacter cloacae [2]): < 0.25 µg/mL
MIC (Enterobacter cloacae [3]): < 0.25 µg/mL
MIC (Morganella morganii [4]; [21]): < 0.25 µg/mL
MIC (Morganella morganii [5]): < 0.25 µg/mL
MIC (Pseudomonas aeruginosa [6]): 32 µg/mL
MIC (Pseudomonas aeruginosa [7]): 16 µg/mL

MIC (Citrobacter freundii [8]): 200 µg/mL
MIC (Citrobacter freundii [9]): 50 µg/mL
MIC (Klebsiella aerogenes [1]): 1 µg/mL
MIC (Klebsiella aerogenes [10]): 12.5 µg/mL
MIC (Klebsiella aerogenes [11]): 12.5 µg/mL
MIC (Klebsiella aerogenes [12]): 100 µg/mL
MIC (Enterobacter cloacae [2]): < 0.25 µg/mL
MIC (Enterobacter cloacae [3]): < 0.25 µg/mL
MIC (Enterobacter cloacae [13]): 3.13 µg/mL
MIC (Enterobacter cloacae [14]): 200 µg/mL
MIC (Enterobacter cloacae [15]): 12.5 µg/mL
MIC (Escherichia coli [16]): ≤ 0.2 µg/mL
MIC (Escherichia coli [17]): ≤ 0.2 µg/mL
MIC (Klebsiella pneumoniae): 0.78 µg/mL
MIC (Morganella morganii [4]): <=0.2 ug ml-1
MIC (Morganella morganii [4]; [21]): < 0.25 µg/mL
MIC (Morganella morganii [5]): < 0.25 µg/mL
MIC (Pseudomonas aeruginosa [18]): 25 µg/mL
MIC (Proteus vulgaris): 0.39 µg/mL
MIC (Pseudomonas aeruginosa [19]): 32 µg/mL
MIC (Pseudomonas aeruginosa [20]): 16 µg/mL
Compound: CC(C)(O/N=C(\C(=O)NC1C(=O)N2C(C(=O)[O-])=C(C[n+]3ccccc3)CSC12)c1csc(N)n1)C(=O)O.C[C@]1(Cn2ccnn2)[C@H](C(=O)[O-])N2C(=O)CC2S1(=O)=O.[Na+] (stereo not drawn)
